Test results: patent US8653024B2, “Use of AMPs for treatment of UTI/cystitis” (Adenium Biotech Aps, priority 2009, dated 2014)
Several values for one entry are separate records, joined by “and”; a condition that tells them apart may be missing. Equal entries are not always repeated. Entries after “also recorded” stand apart in the source; their conditions may differ.

How the values were obtained:
[1] = system: Escherichia coli DSA 443; experiment: Murine urinary tract infection (UTI) model, Example 1: colony counts in urine, bladder and kidney; type: in vivo; details: for Mean colony counts + SEM, bladder day 3 / Mean colony counts + SEM, kidney day 3 / Mean colony counts + SEM, urine day 1 / Mean colony counts + SEM, urine day 2 / Mean colony counts + SEM, urine day 3: female OF-1 mice; for Mean colony counts + SEM, urine day 1: day 1 post infection, before first treatment; for Mean colony counts + SEM, urine day 2: day 2 post infection; for Bacterial reduction in the urine compared to vehicle treatment: p<0.001
[2] = system: Escherichia coli DSA 443; experiment: Murine urinary tract infection model, Example 2 (carried out as described in Example 1); type: in vivo; details: for Mean colony counts ± SEM, bladder day 3 / Mean colony counts ± SEM, kidney day 3 / Mean colony counts ± SEM, urine day 1 / Mean colony counts ± SEM, urine day 3: mice; for Mean colony counts ± SEM, bladder day 3 / Mean colony counts ± SEM, kidney day 3 / Mean colony counts ± SEM, urine day 3: day 3 post infection; for Mean colony counts ± SEM, urine day 1: day 1 post infection, before first treatment; for Bacterial reduction in the kidneys compared to vehicle treatment / Bacterial reduction in the urine compared to vehicle treatment / Bacterial reduction in the bladder compared to vehicle treatment: 10 mg/kg i.v. BID; for Bacterial reduction in the kidneys compared to vehicle treatment: p<0.05; for Effect of treatment compared to Meropenem: 10 mg/kg vs 40 mg/kg Meropenem; for Bacterial reduction in the urine compared to vehicle treatment / Bacterial reduction in the bladder compared to vehicle treatment: after 2 days of treatment; for Bacterial reduction in the urine compared to vehicle treatment: p<0.001; for Bacterial reduction in the bladder compared to vehicle treatment: p<0.01
Method: The efficacy of Arenicin administered BID i.v. days 1 and 2 post infection at a rate of 10 ml/kg to female OF-1 mice (14/group), at a dosage of 10 mg/kg, was assessed against E. coli DSA 443. Treatment with 40 mg/kg Meropenem was included as a positive control and treatment with vehicle was included as a negative control.
Starting on day −4 before inoculation, mice were given drinking water containing 5% glucose. On day 0, the bladder of each mouse was emptied of urine, and each mouse was inoculated with 50 microliters bacteria suspension (E. coli DSA 443 9.3 log10 CFU/ml) via a catheter in the urethra into the bladder.
Urine was sampled from all mice at 24 hours post infection, before the first treatment, and colony counts were determined. 48 and 72 hours post infection, urine was sampled from all mice and kept at room temperature until analyzed. CFU was determined in urine samples within 2-3 hours after sampling. On day 3, mice were sacrificed by cervical dislocation and the bladders and kidneys were collected and stored at −80° C. until analyses. Frozen organs were thawed and homogenized with steel beads on a tissue lyser. All samples, urine, kidney and bladder, were 10 fold diluted in saline and 20 microliter spots were applied on blue agar plates in duplicates. Also undiluted urine (100 microliters if possible) was spread on a separate agar plate to determine the colony counts lowest possible detection level (10 CFU/ml). All agar plates were incubated 18-22 hrs at 35° C. in ambient air.
The CFU numbers are log10 transformed before performing calculations to obtain a normal (or closer to normal) distribution. The data are presented below in Table 1 as mean±SEM. Significance levels were calculated with one-way ANOVA, Dunnett's multiple comparison test and are indicated by the stars in the figures.
The experiment was carried out as described in Example 1.
The efficacies of Variant1 and Variant2 (10 mg/kg) (formulated in Ringer acetate pH 6) were investigated following intravenous (i.v.) administration BID day 1 and day 2 post infection with Escherichia coli DSA 443 (clinical isolate, SSI) in a murine Urinary Tract Infection model. Treatment with 40 mg/kg Meropenem was included as a positive control group.

[3] = 10 mg/kg i.v. BID day 1 and day 2

With `C[C@@H](O)[C@H]1C(=O)N2C(C(=O)O)=C(S[C@@H]3CN[C@H](C(=O)N(C)C)C3)[C@H](C)[C@H]12` [Meropenem, reference compound] the “Bacterial loads in the kidneys compared to vehicle” value ([1]; 40 mg/kg, day 3 post infection) was “slightly, but not significantly, reduced”, the “Mean colony counts + SEM, bladder day 3” value ([1]; bladder, day 3 post infection, 40 mg/kg (positive control)) was 3.9 ± 0.3 log10 CFU and the “Mean colony counts + SEM, kidney day 3” value ([1]; day 3 post infection, 40 mg/kg (positive control)) was 1.8 ± 0.3 log10 CFU. For the same molecule, the “Mean colony counts + SEM, urine day 1” value ([1]; urine, 40 mg/kg group (positive control)) was 7.0 ± 0.4 log10 CFU, the “Mean colony counts + SEM, urine day 2” value ([1]; urine, 40 mg/kg (positive control)) was 2.7 ± 0.3 log10 CFU and the “Mean colony counts + SEM, urine day 3” value ([1]; urine, day 3 post infection, 40 mg/kg (positive control)) was 2.1 ± 0.3 log10 CFU. The “Mean colony counts ± SEM, bladder day 3” value ([2]; 40 mg/kg (positive control)) was 3.9 ± 0.2 log10 CFU, the “Mean colony counts ± SEM, kidney day 3” value ([2]; 40 mg/kg (positive control)) was 1.8 ± 0.4 log10 CFU and the “Mean colony counts ± SEM, urine day 1” value ([2]; 40 mg/kg group (positive control)) was 6.3 ± 1.0 log10 CFU. For the same molecule, the “Mean colony counts ± SEM, urine day 3” value ([2]; 40 mg/kg (positive control)) was 1.8 ± 0.4 log10 CFU.
In the case of “Arenicin: antimicrobial polypeptide having the amino acid sequence shown in SEQ ID NO: 1 (GFCWYVCVYRNGVRVCYRRCN; mat_peptide (1)..(21); listed as Arenicola marina)”, the “Effect (CFU reduction) compared to Meropenem” value ([1]; 10 mg/kg vs 40 mg/kg Meropenem, urine, bladder) is reported as “comparable to that of Meropenem; also recorded: comparable to the effect of the Meropenem”, the “Bacterial reduction in the urine compared to vehicle treatment” value (from here on “Bacterial reduction in the urine”) ([1]; after 1 day of treatment, 10 mg/kg i.v. BID) is reported as “significant bacterial reduction” and the “Bacterial reduction in the urine” value ([1]; after 2 days of treatment, 10 mg/kg i.v. BID, 10 mg/kg) is reported as “significantly (p<0.001) reduced the bacterial loads; also recorded: significant bacterial reduction”. For the same molecule, the “Bacterial reduction in the bladder compared to vehicle treatment” value (from here on “Bacterial reduction in the bladder”) ([1]; after 2 days of treatment, 10 mg/kg i.v. BID, p<0.01, 10 mg/kg) was “Significant lower (p<0.01) CFU levels; also recorded: significant bacterial reduction”, the “Bacterial reduction in the kidneys compared to vehicle treatment” value (shortened to “Bacterial reduction in the kidneys”) ([1]; day 3 post infection, 10 mg/kg i.v. BID, 10 mg/kg) was “not significantly lower than the vehicle group; also recorded: slight reduction” and the “Mean colony counts + SEM, bladder day 3” value ([1]; bladder, day 3 post infection, 10 mg/kg i.v. BID days 1 and 2, 10 mg/kg) was 3.8±0.2 log10 CFU. For the same molecule, the “Mean colony counts + SEM, kidney day 3” value ([1]; day 3 post infection, 10 mg/kg i.v. BID days 1 and 2, 10 mg/kg) was 1.9±0.3 log10 CFU, the “Mean colony counts + SEM, urine day 1” value ([1]; urine, 10 mg/kg group, 10 mg/kg) was 6.9±0.3 log10 CFU and the “Mean colony counts + SEM, urine day 2” value ([1]; urine, after one day of treatment, 10 mg/kg i.v. BID, 10 mg/kg) was 3.2±0.5 log10 CFU. The “Mean colony counts + SEM, urine day 3” value ([1]; urine, day 3 post infection, after completed treatment, 10 mg/kg i.v. BID days 1 and 2, 10 mg/kg) was 2.3±0.3 log10 CFU and 2.3 ± 0.2 log10 CFU.
With “Variant1: antimicrobial polypeptide of SEQ ID NO: 2; Y5N+Y17H substitution as compared to Arenicin (SEQ ID NO: 1) (GFCWNVCVYRNGVRVCHRRCN)” the “Bacterial reduction in the kidneys” value [2] was “significant bacterial reduction”, the “Effect of treatment compared to Meropenem” value [2] was “comparable to the effect of treatment with Meropenem” and the “Bacterial reduction in the urine” value [2] was “significant bacterial reduction”. The “Bacterial reduction in the bladder” value [2] was “significant bacterial reduction”, the “Mean colony counts ± SEM, bladder day 3” value [2, 3] was 3.8 ± 0.4 log10 CFU and the “Mean colony counts ± SEM, kidney day 3” value [2, 3] was 1.3 ± 0.2 log10 CFU. For the same molecule, the “Mean colony counts ± SEM, urine day 1” value ([2]; 10 mg/kg group) was 7.1 ± 0.8 log10 CFU and the “Mean colony counts ± SEM, urine day 3” value [2, 3] was 2.6 ± 0.4 log10 CFU.
In the case of “Variant2: antimicrobial polypeptide of SEQ ID NO: 3; W4G+Y5H substitution as compared to Arenicin (GFCGHVCVYRNGVRVCYRRCN)”, the “Bacterial reduction in the kidneys” value [2] is reported as “significant bacterial reduction”, the “Effect of treatment compared to Meropenem” value [2] is reported as “comparable to the effect of treatment with Meropenem” and the “Bacterial reduction in the urine” value [2] is reported as “significant bacterial reduction”. For the same molecule, the “Bacterial reduction in the bladder” value [2] was “significant bacterial reduction”, the “Mean colony counts ± SEM, bladder day 3” value [2, 3] was 3.7 ± 0.5 log10 CFU and the “Mean colony counts ± SEM, kidney day 3” value [2, 3] was 1.5 ± 0.4 log10 CFU. For the same molecule, the “Mean colony counts ± SEM, urine day 1” value ([2]; 10 mg/kg group) was 5.7 ± 1.0 log10 CFU and the “Mean colony counts ± SEM, urine day 3” value [2, 3] was 3.2 ± 0.5 log10 CFU.
